Source: patent US8506950B2, “Degradable microcapsules” (ETH Zurich, priority 2008, dated 2013)

Columns and labels:
[1] = biological target: T1, bovine luteinizing hormone receptor (bLHR) (Bos taurus, UniProt Q28005); assay: Intracellular cAMP in HEK293T cells transiently expressing bLHR, induced by bLH; format: cell-based; details: 500 ng/ml bLH, 1 h post-induction, bLHR expressed, vs non-induced cells
T1 construct: Full-length cDNAs encoding the LHRs of rat (r) and bovine (b) origin; expressed in transfected cells; host or cells: HEK293T, transient transfection with pcDNA3.1-bLHR
Procedure: (§1) HEK293T cells were transiently transfected for constitutive bLHR or rLHR expression. 48 hours post-transfection the cells were induced by the addition of 500 ng/ml bLH. The intracellular cAMP-levels were determined 1 h post-induction. […] (□) no bLH, (▪) 500 ng/mL bLH.
(§2) Full-length cDNAs encoding the LHRs of rat (r) and bovine (b) origin were cloned under control of the strong constitutive human cytomegalovirus promoter (PCMV) as previously described [Kawate N, Tamada H, Inaba T, Sawada T, Journal of Reproduction and Development 2002; 48:8; Ulaner G A, Chuang J, Lin W, Woodbury D, Myers R V, Moyle W R, J Endocrinol 1999; 163:289-97]. The expression vectors were transiently transfected into HEK293T cells. The functionality of the expressed LHRs was determined 48 hours post-transfection by assaying the intracellular cAMP increase in response to the presence of bLH (FIG. 7). […] However, when the rLHR was expressed the detected cAMP-level increased to 29-fold level of the non-induced cells. […]
(§3) The intracellular cAMP production of cells was quantified using the cAMP Fluorescence Polarization (FP) Biotrak Immunoassay System (GE Healthcare Bio-Sciences GmbH, Otelfingen, Switzerland, Cat No. RPN3595) according to the manufacturer's protocol. The expression of firefly luciferase was determined with the Tropix Luciferase Assay Kit (Applied Biosystems, Bedford, USA, Cat No. BC100L). […]

[2] = biological target: T2, rat luteinizing hormone receptor (rLHR) (Rattus norvegicus, UniProt P16235); assay: Intracellular cAMP in HEK293T cells transiently expressing rLHR, induced by bLH; format: cell-based; details: 500 ng/ml bLH, 1 h post-induction, rLHR expressed, vs non-induced cells
T2 construct: Full-length cDNAs encoding the LHRs of rat (r) and bovine (b) origin; expressed in transfected cells; host or cells: HEK293T, transient transfection with pLEN-rLHR
Procedure: as §1, §2, §3

T2 sequence (P16235 27-700): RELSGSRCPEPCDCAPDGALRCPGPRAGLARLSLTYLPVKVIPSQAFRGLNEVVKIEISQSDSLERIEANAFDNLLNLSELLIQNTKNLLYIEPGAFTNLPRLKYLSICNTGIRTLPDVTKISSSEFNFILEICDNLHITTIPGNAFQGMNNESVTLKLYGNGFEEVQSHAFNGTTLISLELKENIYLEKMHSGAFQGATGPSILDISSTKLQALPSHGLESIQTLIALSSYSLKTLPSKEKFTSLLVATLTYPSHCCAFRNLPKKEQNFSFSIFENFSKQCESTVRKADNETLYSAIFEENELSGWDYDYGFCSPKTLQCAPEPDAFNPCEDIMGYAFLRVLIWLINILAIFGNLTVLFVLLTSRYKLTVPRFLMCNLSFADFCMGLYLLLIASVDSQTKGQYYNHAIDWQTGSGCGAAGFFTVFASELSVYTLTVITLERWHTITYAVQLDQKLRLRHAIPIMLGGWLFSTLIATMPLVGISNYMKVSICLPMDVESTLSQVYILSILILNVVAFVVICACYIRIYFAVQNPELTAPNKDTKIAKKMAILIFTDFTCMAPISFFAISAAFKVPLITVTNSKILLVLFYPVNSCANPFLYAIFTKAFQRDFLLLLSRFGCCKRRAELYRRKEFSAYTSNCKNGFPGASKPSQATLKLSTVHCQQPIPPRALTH
T1 sequence (Q28005 27-701): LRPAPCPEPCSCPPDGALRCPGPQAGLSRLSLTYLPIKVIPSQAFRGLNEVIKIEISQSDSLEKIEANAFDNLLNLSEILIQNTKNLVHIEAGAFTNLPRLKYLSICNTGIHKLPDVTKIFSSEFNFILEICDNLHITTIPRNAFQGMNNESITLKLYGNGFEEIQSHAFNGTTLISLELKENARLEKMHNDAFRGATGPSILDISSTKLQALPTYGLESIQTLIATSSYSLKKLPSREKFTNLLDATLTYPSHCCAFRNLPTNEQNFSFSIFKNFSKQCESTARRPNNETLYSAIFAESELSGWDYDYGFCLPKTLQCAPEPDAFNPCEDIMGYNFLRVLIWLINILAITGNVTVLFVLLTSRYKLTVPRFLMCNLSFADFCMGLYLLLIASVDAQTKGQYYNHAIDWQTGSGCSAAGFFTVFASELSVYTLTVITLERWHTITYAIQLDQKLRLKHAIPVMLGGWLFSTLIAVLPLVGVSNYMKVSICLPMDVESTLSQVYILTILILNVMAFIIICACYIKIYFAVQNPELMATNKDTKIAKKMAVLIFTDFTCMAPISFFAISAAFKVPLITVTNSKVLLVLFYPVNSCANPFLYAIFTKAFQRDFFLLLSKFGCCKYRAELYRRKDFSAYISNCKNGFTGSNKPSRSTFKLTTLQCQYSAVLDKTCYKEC

bovine luteinizing hormone [bLH]
increase in intracellular cAMP [1]: 12 fold
increase in intracellular cAMP [2]: 29 fold
